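How tested: cells in 96-well plates exposed to compound for 48 hours at five concentrations. Here, GI50 denotes the concentration required for 50% inhibition of growth.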 Active and inactive are the calls of the source. No stated cut-off is given here; in the data, active = GI50 up to about 1.1 µM and inactive = higher.
Experiments:
Test in all cases: DTP human tumour cell line panel, 48 h
KM12 = system: KM12
CCRF-CEM = system: CCRF-CEM
HCT-116 = system: HCT-116
MDA-MB-231 = system: MDA-MB-231
OVCAR-8 = system: OVCAR-8
SK-MEL-2 = system: SK-MEL-2
A549 = system: A549
OVCAR-5 = system: OVCAR-5
MOLT-4 = system: MOLT-4
Hs-578T = system: Hs-578T
T47D = system: T47D
OVCAR-3 = system: OVCAR-3
SNB-75 = system: SNB-75
HCT-15 = system: HCT-15
HCC 2998 = system: HCC 2998
DU-145 = system: DU-145
ACHN = system: ACHN
RXF 393 = system: RXF 393
OVCAR-4 = system: OVCAR-4
SF-295 = system: SF-295

Row | Compound | GI50 (KM12) | GI50 (CCRF-CEM) | GI50 (HCT-116) | GI50 (MDA-MB-231) | GI50 (OVCAR-8) | GI50 (SK-MEL-2) | GI50 (A549) | GI50 (OVCAR-5) | GI50 (MOLT-4) | GI50 (Hs-578T) | GI50 (T47D) | GI50 (OVCAR-3) | GI50 (SNB-75) | GI50 (HCT-15) [µM] | GI50 (HCC 2998) | GI50 (DU-145) | GI50 (ACHN) | GI50 (RXF 393) | GI50 (OVCAR-4) | GI50 (SF-295)
1 | COc1ccc(N2C(=O)C3c4[nH]c5ccc(F)cc5c4C4CCC(C(C)(C)C)CC4C3C2=O)cc1 (stereo not given) | > 10 µM (inactive) | 7.13 µM (inactive) | 4.14 µM (inactive) | > 10 µM (inactive) | 7.8 µM (inactive) | > 10 µM (inactive) | 7.1 µM (inactive) | > 10 µM (inactive) | > 10 µM (inactive) | 2.81 µM (inactive) | 9.25 µM (inactive) | > 10 µM (inactive) | 1.84 µM (inactive) | > 10 | > 10 µM (inactive) | > 10 µM (inactive) | > 10 µM (inactive) | > 10 µM (inactive) | 6.05 µM (inactive) | 6.04 µM (inactive)
2 | O=[N+]([O-])c1ccc(S(=O)(=O)N=Ic2ccccc2)cc1 | > 100 µM (inactive) | > 100 µM (inactive) | > 100 µM (inactive) | > 100 µM (inactive) | > 100 µM (inactive) | > 100 µM (inactive) | > 100 µM (inactive) | > 100 µM (inactive) | > 100 µM (inactive) | > 100 µM (inactive) | > 100 µM (inactive) | > 100 µM (inactive) | > 100 µM (inactive) | > 100 | > 100 µM (inactive) | > 100 µM (inactive) | > 100 µM (inactive) | > 100 µM (inactive) | > 100 µM (inactive) | > 100 µM (inactive)
3 | CCCCCCCCCCCCCCCCCCN(C)CC(COP(=O)([O-])OCC[N+](C)(C)C)OC (stereo not given) | 3.52 µM (inactive) | 5.4 µM (inactive) | 15.5 µM (inactive) | 57.1 µM (inactive) | 26.6 µM (inactive) | 38.5 µM (inactive) | 22.8 µM (inactive) | 4.51 µM (inactive) | 3.94 µM (inactive) | > 46.1 µM (inactive) | > 80.7 µM (inactive) | 28.6 µM (inactive) | 5.93 µM (inactive) | 7.67 | 6.75 µM (inactive) | 31.5 µM (inactive) | 22.6 µM (inactive) | 3.4 µM (inactive) | 8.09 µM (inactive) | 7.83 µM (inactive)

Reference: ChEMBL document CHEMBL1201862, “PubChem BioAssay data set” (2004)
